# Laboratory results taken from ChEMBL document CHEMBL1155495, “Structural study of phenyl boronic acid derivatives as AmpC beta-lactamase inhibitors” (Bioorg Med Chem Lett, 2010).
# Assay: Inhibition of AmpC beta lactamase by spectrophotometry
# Conditions: not given
row,Compound,Ki [nM]
1,Nc1cc(B(O)O)ccc1C(=O)O,1800
2,O=C(O)c1ccc(C(=O)Nc2cccc(S(=O)(=O)Nc3cc(B(O)O)ccc3C(=O)O)c2)cc1,100
3,O=C(O)c1ccc(B(O)O)cc1NS(=O)(=O)c1cccc(S(=O)(=O)Nc2cc(B(O)O)ccc2C(=O)O)c1,23
4,Cc1noc(C)c1S(=O)(=O)Nc1cc(B(O)O)ccc1C(=O)O,350
5,O=C(O)c1ccc(C(=O)Nc2ccc(S(=O)(=O)Nc3cccc(B(O)O)c3)cc2)cc1,450
6,O=S(=O)(Nc1cccc(B(O)O)c1)c1cccc(S(=O)(=O)Nc2cccc(B(O)O)c2)c1,60

# Assay: Lipophilicity, log D of the compound
# Assay type: physicochemical
# Conditions: octanol/water
row,Compound,logD
1,O=C(O)c1ccc(B(O)O)cc1NS(=O)(=O)c1cc(S(=O)(=O)c2ccccc2)cs1,0.026
